Test system: human MOLM13 leukemia cells
Assay: In vivo growth inhibition test of tumor cell (MOLM13 subcutaneous model)
Experimental: Test Example 4. In Vivo Growth Inhibition Test of Tumor Cell
Experimental animals: Bab/c immunodeficiency mice, female, 6 weeks old (weighing about 20 grams), purchased from Shanghai Sippr-BK laboratory animal Co. Ltd., raised by the Animal Center of Shanghai Fudan University, approved by the Ethics Committee of Shanghai Fudan University. The breeding environment is SPF level.
Test samples: Compound 140 of the present invention (purity: 99%), solid powder, stored at 4-8° C.
Cell and animal modelling: human MOLM13 leukemia cells were cultured in RPMI 1640 medium containing 10% fetal bovine serum. Cells in the exponential growth phase were collected (centrifuge at 1700 rpm for 3 minutes), washed once with 1×PBS, and resuspended to obtain a final concentration of 5×10^7/ml cells. Single-point inoculation of 0.1 ml was carried out subcutaneously on the right back.
When the average tumor volume reached ˜400 mm^3, the mice were randomly grouped according to tumor size. The test was divided into solvent control group and administration group, with 3 mice in each group. 0.01 ml of solution per gram of mouse weight was intragastrically administered (p.o.) once a day. The tumor was measured three times a week. Calculation formula for tumor volume: long diameter×short diameter^2/2. When the tumor volume of the control group reached 2000 mm^3, the experiment was ended, and molecular pathological analysis of tumor tissue was performed. The efficacy was evaluated based on the relative tumor growth inhibition rate (TGI), and the safety was evaluated based on the change of animal weight.
Formulation of test samples: An appropriate amount of compound 140 was weighed. An appropriate amount of ultrapure water was added and mixed well.
Methanesulfonic acid was then added to obtain a clear solution, and 4M NaOH was added dropwise to adjust pH to 4.3. Ultrapure water was added to obtain a constant volume and a final concentration of 5 mg/ml.
The solvent control group was an aqueous methanesulfonic acid solution (pH 4.3).
T/C % represents the relative tumor growth rate, that is, the percentage ratio of relative tumor volume or tumor weight of the administration group to that of the control group at a certain time point. T and C respectively represent the relative tumor volume (RTV) of the administration group and the control group at a certain time point. T/C % is calculated as follows:
wherein TRTV: the average RTV of the administration group; CRTV: the average RTV of the solvent control group: RTV=Vt/V0, V0 represents the tumor volume of the animal at the time of grouping, and Vt represents the tumor volume of the animal after administration.
Statistical analysis: All test results were expressed as mean tumor volume±SEM (mean standard error). The tumor volume data on Day 9 after the start of administration was selected for statistical analysis among different groups. The significant difference between the relative tumor volume of the administration group and that of the control group was determined by independent sample T test method. All data were analyzed with SPSS 18.0. p<0.05 means that there is a significant difference.

[1] = MOLM13 model, 50 mg/kg p.o. once a day, Day 9 after the start of administration

NC(=O)c1cn(-c2nc(Nc3cccc(N4CCN(C5CCOCC5)CC4)c3)ncc2F)c2ccccc12 [Compound 140, 1-(5-fluoro-2-{3-[4-(tetrahydro-pyran-4-yl)-piperazin-1-yl]-phenylamino}-pyrimidin-4-yl)-1H-indole-3-carboxamide]
tolerability of the drug (50 mg/kg p.o. once a day): well tolerated | weight of the mouse during the administration (50 mg/kg p.o. once a day): remained stable | TGI (%) [1]: 91.29% | TIC (%) [1]: 8.71% | Tumor volume (mm^3) (MOLM13 model, 50 mg/kg p.o. once a day, Day 9 after the start of administration, mean ± SEM): 164.8 ± 12 mm^3 | growth of human acute myeloid leukemia MOLM13 cells in vivo (dose of 50 mg/kg): effectively inhibit the growth
